Active and inactive are the calls of the source.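 How the source made its calls: active means compounds giving half or more protection of infected cells from virus-caused growth loss, again on retest; inactive means the rest.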
Tested on: CEM cells HIV-1 protection, formazan growth assay
Test: NCI AIDS Antiviral Assay
Settings: for IC50: measured here: growth of uninfected CEM cells
Summary of the method: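 CEM (human) cells, HIV-1 infected vs uninfected, 5-point dosing, formazan growth read-out. Retest threshold 50% protection.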

Structure (SMILES) | EC50 | IC50 | outcome
CCC1(O)C(=O)Nc2ccccc2C1=O (stereo unspecified) | > 200 µM | > 200 µM | 
CCCCCC(=O)Cc1cc(OC)cc2c1C(=O)Oc1cc(O)c(C(=O)O)c(CC(=O)CCCCC)c1O2 | > 339 µM | 112 µM | 
CSC1=C(SC)C(=O)c2cn(C)c(=O)cc2C1=O | > 200 µM | 0.977 µM | 
CC(=O)[CH-]C(=O)c1ccccc1.CC(=O)[CH-]C(=O)c1ccccc1.[CH2-]CCC.[CH2-]CCC.[Sn+4] | > 46.8 µM | 0.776 µM | 
COc1ccccc1C1OCC(C)(C)N1C (stereo unspecified) | > 200 µM | 14.5 µM | 
CC(=O)Nc1ccc(Sc2nnc(NC(C)=O)s2)cc1 | > 32.4 µM | > 32.4 µM | 
CN1OC2CCC1CC(OC(c1ccccc1)c1ccccc1)C2 (stereo unspecified) | > 200 µM | > 200 µM | 
C=CCNC(=S)N1CC(C)C(=O)Nc2cc(Cl)ccc21 (stereo unspecified) | > 200 µM | > 200 µM | 
OC1OC(c2ccc[nH]2)C(F)(F)C(F)(F)C1(F)F (stereo unspecified) | > 200 µM | 67.6 µM | 
Cc1cc2c(cc1C)n1c(N(C)C)[n+]3ccccc3c1c1c3cccc[n+]3c(N(C)C)n21 | > 151 µM | 21.9 µM | 
O=C(NCCCCCCCN1CCCCCC1)C1c2ccccc2-c2ccccc21 | > 200 µM | 39.8 µM | 
COc1nnc(C)c2[nH]c(=S)[nH]c12 | > 457 µM | > 457 µM | 
Cc1cccc(C2=NC(=C3CCCCC3)C(=O)O2)c1 | > 200 µM | 38 µM | 
CN(C)C(=S)N/N=C\C(=N/NC(=S)N(C)C)c1ccccc1 | > 200 µM | 12.9 µM | 
COC(C)(C)C1(O)CC[C@@H](C)CC1=O (stereo partly specified) | > 100 µM | > 100 µM | 
CNC(=S)/C(C#N)=C(\N)N1CCN(C)CC1 | > 200 µM | > 200 µM | 
COC1/C=C/OC2(C)Oc3c(C)c(O)c4c(O)c(c(/C=N/N5CCN(Cc6ccccc6)CC5)c(O)c4c3C2=O)NC(=O)C(C)=C/C=C/C(C)C(O)C(C)C(O)C(C)C(OC(C)=O)C1C (stereo unspecified) | > 200 µM | 10.2 µM | 
O=Nc1c2n[nH]c1CCCCCCCCC2 | > 309 µM | 44.7 µM | 
CSCC1Cc2c(cc3c(c2O)C(=O)c2ccccc2C3=O)O1 (stereo unspecified) |  |  | inactive
N#CC(C#N)=c1ccc(=C(C#N)C#N)c2nsnc12 | > 38 µM | > 38 µM | 
CC(=O)[C@]1(O)Cc2c(O)c3c(c(O)c2[C@@H](OC2CC(N)C(O)C(C)O2)C1)C(=O)c1c(OCc2ccccc2)cccc1C3=O (stereo partly specified) |  |  | inactive
Cn1c(-c2ccccc2)cc(-c2ccsc2)c1-c1ccsc1 | > 200 µM | 158 µM | 
C(/C=N/NC1=NCCN1)=N\NC1=NCCN1 | > 200 µM | > 200 µM | 

Structure (SMILES) | EC50 | IC50 | outcome
OC1(C(Sc2ccccc2)Sc2ccccc2)CCCCCC1 |  |  | inactive
O=C(NNc1ccnc2cc(Cl)ccc12)/C(=C\c1ccccc1Cl)NC(=O)c1ccccc1 | > 100 µM | 56.2 µM | 
Nc1ccn(C2OC(CO)CC2F)c(=O)n1 (stereo unspecified) | 0.132 µM | 7.08 µM | 
CN(C)c1ccc(/C=C2\Oc3ccccc3C2=O)cc1 | > 200 µM | > 200 µM | 
O=C1/C(=C/c2ccc(F)cc2)CNC/C1=C\c1ccc(F)cc1 | > 15.1 µM | 0.288 µM | 
Cc1c(/C=N/N(C)C)oc2c1cc(O)c1ncccc12 | > 37.2 µM | 2.51 µM | 
CC(=O)Oc1cc(O)c2c(=O)c(OC(C)=O)c(-c3ccc(OC(C)=O)c(OC(C)=O)c3)oc2c1 | > 200 µM | 33.9 µM | 
O=C(Nc1ccc(F)cc1)Nc1ccc(Nc2ccccc2)cc1 | > 200 µM | > 200 µM | 
O=C1CCC(c2ccc(Cl)cc2)=NN1c1nsc2ccccc12 | > 39.8 µM | > 39.8 µM | 
CCc1nnc(CC)n1N1C(=O)CCC1=O | > 200 µM | > 200 µM | 
Cc1nnc2sc(/C=C/c3ccccc3)nn12 |  | > 200 µM | inactive
CC(C)COC(=N)c1ccccc1C1(O)CCCCC1 | > 200 µM | 117 µM | 
C1CC[C@H]2SSC3CCCC[C@H]3SSC2C1 (stereo partly specified) | > 17.8 µM | > 17.8 µM | 
O=P1(Oc2ccccc2)NCc2ncccc2O1 (stereo unspecified) | > 200 µM | > 200 µM | 
C(=Nc1ccc(SSc2ccc(N=Cc3ccccc3)cc2)cc1)c1ccccc1 | > 200 µM | 33.1 µM | 
CCOC(=O)Cn1c(=O)c2nc(SC)sc2n(CC)c1=S |  |  | inactive
CC12NC(=O)NC(=O)N1CCS2 (stereo unspecified) |  |  | inactive
CCN1CCN(c2ccc(Nc3ccnc4ccc5nn(C)nc5c34)cc2)CC1 | > 18.6 µM | 7.24 µM | 
COc1ccc(/C=C2\SC(=S)N(C=C3C(=O)NC(=S)NC3=O)C2=O)cc1OC | > 200 µM | 29.5 µM | 
CCOC(=O)C(C(=O)OCC)S(C)(=O)=O | > 251 µM | > 251 µM | 
CC#N.CC#N.COC(=O)[C@@H]1CN(C(C)=O)C(=O)[N-]1.COC(=O)[C@@H]1CN(C(C)=O)C(=O)[N-]1.COC(=O)[C@@H]1CN(C(C)=O)C(=O)[N-]1.COC(=O)[C@@H]1CN(C(C)=O)C(=O)[N-]1.[Rh+2].[Rh+2] | > 200 µM | > 200 µM | 
S=C(S)N1CCCCC1 | > 200 µM |  | 
COc1ccc(N2C(=O)C3CC(c4ccc(Br)cc4)c4c([nH]c5ccccc45)C3C2=O)cc1 (stereo unspecified) | > 14.5 µM | 11 µM | 

Structure (SMILES) | EC50 | IC50 | outcome
FC(F)(F)P1C2C=CC(CC2)C1(F)F (stereo unspecified) | > 251 µM | > 251 µM | 
CN(/N=C\c1ccnc2ccccc12)c1ccc([N+](=O)[O-])cc1 |  |  | inactive
COc1ccc(/C=C2\N=C(c3ccccc3)N(N=C3NC(=O)CC(=O)N3)C2=O)cc1 | > 200 µM | > 200 µM | 
N.N.N.O=N[O-].O=N[O-].O=N[O-].[Co+3] |  |  | inactive
CC(=O)NC(CCCN(Cc1ccccc1)C(=O)N(CCCl)N=O)C(=O)NCc1ccccc1 (stereo unspecified) | > 74.1 µM | 45.7 µM | 
CC1=C[C@H]2C3=C(OC(C)(C)[C@H]2CC1)C(=O)c1c(cc(O)c(C)c1O)C3=O | > 182 µM | 34.7 µM | 
Cc1c(C(=O)O)n(C)c(=O)n(C)c1=O |  |  | inactive
COC(=O)c1cc2c(c(C(=O)OC)c1O)C(=O)C=CC2=O | > 25.1 µM | 6.61 µM | 
O=c1c(OS(=O)(=O)O)c(-c2ccc(OS(=O)(=O)O)cc2OS(=O)(=O)O)oc2cc(OS(=O)(=O)O)cc(OS(=O)(=O)O)c12 | > 100 µM | > 100 µM | 
COc1cc(C2(C)SCCCS2)cc(OC)c1OC | > 182 µM | > 182 µM | 
CCOC(=O)c1c(NS(=O)(=O)c2ccc(C)cc2)sc(C)c1-c1ccccc1 | > 200 µM | 21.9 µM | 
COc1cc2ccccc2oc1=O | > 40.7 µM | > 40.7 µM | 
O=C(CCCN1CCC2(CC1)CC(=O)N(N1CCOCC1)C2=O)c1ccccc1 | > 200 µM | > 200 µM | 
CN/N=C/c1c2c(O)c3c(O)c(C)c4c(c3c1O)C(=O)C(C)(O/C=C/C(OC)C(C)C(OC(C)=O)C(C)C(O)C(C)C(O)C(C)/C=C/C=C(/C)C(=O)N2)O4 (stereo unspecified) | > 200 µM | 26.3 µM | 
O=c1[nH]c(=S)[nH]c2c1CN(CCCN1CCOCC1)CN2 | > 794 µM | 49 µM | 
O=S(=O)(c1ccccc1)c1ccccn1 | 75.9 µM | 407 µM | 
O=c1c(SCc2ccc(Cl)cc2Cl)c(SCc2ccc(Cl)cc2Cl)cnn1-c1ccccc1 | > 46.8 µM | > 46.8 µM | 
CN(C)c1ccc(CC2CCc3ccccc32)cc1 (stereo unspecified) | > 20.9 µM | > 20.9 µM | 
Cc1occc1C(=S)Nc1ccc(Cl)c(C(=O)OCC(C)C)c1 | 0.0123 µM | 18.6 µM | 
O=C(O)CC[C@H](NC(=O)c1ccc(-n2nc3ccc(O)cc3nc2=O)cc1)C(=O)O | > 145 µM | > 145 µM | 
O=Cc1ccc2c(c1)CC1(Cc3ccccc3C1)C2 | > 200 µM | 33.9 µM | 
COc1ccc(N2C(=O)C(=O)N(c3ccc(N=Nc4ccccc4)cc3)C2=S)cc1 | > 200 µM | 11.7 µM | 
COc1cc(CNc2nc3c(N)cc(C(F)(F)F)cc3nc2-c2ccccc2)cc(OC)c1OC | > 20.4 µM | > 20.4 µM | 

Structure (SMILES) | EC50 | IC50 | outcome
COC(=O)CC[N+]1=CCC(c2ccccc2)(c2ccccc2)O1 | > 115 µM | 69.2 µM | 
CCc1oc2ccccc2c1C(=O)c1cc(Br)c(O)c(Br)c1 | > 200 µM | 34.7 µM | 
O=C1NC(=O)c2c3ccc(c21)CCc1ccc(c2c1C(=O)NC2=O)CC3 | > 15.1 µM | > 15.1 µM | 
COc1ccc(OC(C)=O)c2c1CCC=CC2=O |  |  | inactive
O=[N+]([O-])c1ccc(O)c(CN(Cc2ccccc2)Cc2c(O)ccc3ccccc23)c1 | > 200 µM | > 200 µM | 
C=CCC1C(=O)CC2(C)C(CC=C)C(=O)CC12C (stereo unspecified) |  |  | inactive
CCOc1ccnc2c(OC)c(C)c3nc4ccccc4nc3c12 | > 100 µM | > 100 µM | 
CCSc1sc(=Nc2ccc(N=c3sc(C)c(SC)s3)cc2)sc1-c1ccc(C)cc1 |  |  | inactive
N#CCC(=O)NCCc1c[nH]c2ccccc12 | > 200 µM | > 200 µM | 
CN(C)c1ccc(/C=C(\NC(=O)c2ccccc2)C(=O)Nc2ccccc2C(=O)NCc2ccccc2)cc1 | > 151 µM | 70.8 µM | 
O=[N+]([O-])c1cccc(S(=O)(=O)SSS(=O)(=O)c2cccc([N+](=O)[O-])c2)c1 | > 40.7 µM | > 40.7 µM | 
COc1ccccc1C(C(=O)NC1CN2CCC1CC2)c1ccsc1 (stereo unspecified) | > 200 µM | 151 µM | 
O=C1C(Cl)N(c2ccccc2[N+](=O)[O-])C1c1c[nH]c2ccccc12 (stereo unspecified) | > 275 µM | 132 µM | 
COCN1COCN=C1NC#N | > 525 µM | > 525 µM | 
O=C(Nc1cccc(NC(=O)C(=O)C2CCC3=C(Sc4ccccc4N3)C2=O)n1)C(=O)C1CCC2=C(Sc3ccccc3N2)C1=O (stereo unspecified) | > 75.9 µM | 63.1 µM | 
O=C(O)CC1Sc2ccccc2NC1=O (stereo unspecified) | > 1120 µM | > 1120 µM | 
Clc1cc2nc(C3CCCCO3)[nH]c2cc1Cl (stereo unspecified) | > 200 µM | 10.2 µM | 
CCOC(=O)C12CCC(=O)C=C1[C@@H](C)C(=O)CC2 (stereo partly specified) | > 1000 µM | 363 µM | 
CCCNC1=C2C[C@@H](C)C[C@@H](OC)[C@@H](OC(=O)CCCN)[C@H](C)/C=C(\C)[C@@H](OC(N)=O)[C@H](OC)/C=C\C=C(/C)C(=O)NC(=CC1=O)C2=O | > 200 µM | 11.5 µM | 
COC(=O)Cc1cc(OC)c(OC)cc1Br | > 631 µM | 513 µM | 

Source: PubChem BioAssay AID179 (DTP/NCI, 2004)
